Values quoted from earlier work, collected in patent US5591773A, “Inhibition of cataract formation, diseases resulting from oxidative stress, and HIV replication by caffeic acid esters” (priority 1994, dated 1997).

Key:
[1] = test system: bovine lens (H2O2); settings: cited from earlier work
[2] = test system: bovine lens (opacity); settings: cited from earlier work
[3] = test system: TPA-induced oxidative processes (PMN infiltration, reactive oxygen species generation, DNA base oxidation); settings: sarcophytol A 6.5 nmol, TPA 6.5 nmol/treatment; cited from earlier work
[4] = test system: tumor promotion; settings: cited from earlier work
[5] = test system: mammalian cells; settings: cited from earlier work
[6] = test system: HeLa cells; settings: cited from earlier work

| Structure (SMILES) | inhibition of TPA-mediated H2O2 production, lens (in words) [1] | inhibition of TPA-mediated lens opacification (in words) [2] | anti-tumor promoting properties (in words) [4] | further results |
| --- | --- | --- | --- | --- |
| C/C1=C\C=C(\C(C)C)[C@@H](O)C/C(C)=C/CC/C(C)=C/CC1 [sarcophytol A] | effective inhibitors | effective inhibitors | known anti-tumor promoters | inhibition of TPA-induced oxidative processes (in words) [3]: potent inhibitor |
| COc1cc(/C=C/C(=O)CC(=O)/C=C/c2ccc(O)c(OC)c2)ccc1O [curcumin] | – | – | known anti-tumor promoters | – |
| O=c1[nH]c(=O)n([C@H]2C[C@H](O)[C@@H](CO)O2)cc1CO [HMdUrd, 5-hydroxymethyl-2'-deoxyuridine] | – | – | – | cytotoxicity and mutagenicity (in words) [5]: cytotoxic and cytostatic to a number of mammalian cells and is mutagenic |
| O=C(O)/C=C/c1ccc(O)c(O)c1 [caffeic acid] | – | – | known anti-tumor promoters | – |
| O=C(O[C@@H]1Cc2c(O)cc(O)cc2O[C@@H]1c1cc(O)c(O)c(O)c1)c1cc(O)c(O)c(O)c1 [EGCG, (-)-epigallocatechin gallate] | effective inhibitors | effective inhibitors | known anti-tumor promoters | inhibition of TPA-induced oxidative processes (in words) ([6]; EGCG 50 nmol): less effective inhibition of TPA-induced oxidative processes; HMdUrd and 8-OHdGua levels (in words) ([6]; EGCG 5-25 nmol preincubation, TPA): contained lower levels of HMdUrd and 8-OHdGua than cells treated only with TPA |
